Assay results as given in paper PMC12102759 (Protein Science : A Publication of the Protein Society, 2025).

These substances were tested on G3BP1 NFT2. Conditions: library DMS-BM; bait G3BP1 NFT2; prey CAPRIN1; AQMQGPYNFIQDSM(averaged): mean of the two overlapping peptides over the shared positions.
Type: binding, human
With “AQMQGPYNFIQDSM(averaged) N8W (AQMQGPYWFIQDSM)” the “DMS position-specific score (PSSM value) per amino-acid substitution, averaged” value was 0.1126.
“AQMQGPYNFIQDSM(averaged) Q11H (AQMQGPYNFIHDSM)” was tested, and the “DMS position-specific score (PSSM value) per amino-acid substitution, averaged” value was 0.008689.
In the case of “AQMQGPYNFIQDSM(averaged) A1D (DQMQGPYNFIQDSM)”, the “DMS position-specific score (PSSM value) per amino-acid substitution, averaged” value was 0.01051.
With “AQMQGPYNFIQDSM(averaged) Q4I (AQMIGPYNFIQDSM)” the “DMS position-specific score (PSSM value) per amino-acid substitution, averaged” value was 0.04808.
With “AQMQGPYNFIQDSM(averaged) N8I (AQMQGPYIFIQDSM)” the “DMS position-specific score (PSSM value) per amino-acid substitution, averaged” value was 0.06952.
For “AQMQGPYNFIQDSM(averaged) Q2N (ANMQGPYNFIQDSM)”, the “DMS position-specific score (PSSM value) per amino-acid substitution, averaged” value was 0.006268.
With “AQMQGPYNFIQDSM(averaged) Q4H (AQMHGPYNFIQDSM)” the “DMS position-specific score (PSSM value) per amino-acid substitution, averaged” value was 0.0707.
For “AQMQGPYNFIQDSM(averaged) P6K (AQMQGKYNFIQDSM)”, the “DMS position-specific score (PSSM value) per amino-acid substitution, averaged” value was 0.01016.
With “AQMQGPYNFIQDSM(averaged) N8Q (AQMQGPYQFIQDSM)” the “DMS position-specific score (PSSM value) per amino-acid substitution, averaged” value was 0.04567.
In the case of “AQMQGPYNFIQDSM(averaged) Q11E (AQMQGPYNFIEDSM)”, the “DMS position-specific score (PSSM value) per amino-acid substitution, averaged” value was 0.
In the case of “AQMQGPYNFIQDSM(averaged) A1L (LQMQGPYNFIQDSM)”, the “DMS position-specific score (PSSM value) per amino-acid substitution, averaged” value was 0.06855.
For “AQMQGPYNFIQDSM(averaged) G5N (AQMQNPYNFIQDSM)”, the “DMS position-specific score (PSSM value) per amino-acid substitution, averaged” value was 0.002472.
With “AQMQGPYNFIQDSM(averaged) P6E (AQMQGEYNFIQDSM)” the “DMS position-specific score (PSSM value) per amino-acid substitution, averaged” value was 0.004474.
With “AQMQGPYNFIQDSM(averaged) F9L (AQMQGPYNLIQDSM)” the “DMS position-specific score (PSSM value) per amino-acid substitution, averaged” value was 0.0005113.
With “AQMQGPYNFIQDSM(averaged) P6F (AQMQGFYNFIQDSM)” the “DMS position-specific score (PSSM value) per amino-acid substitution, averaged” value was 0.002152.
For “AQMQGPYNFIQDSM(averaged) M3N (AQNQGPYNFIQDSM)”, the “DMS position-specific score (PSSM value) per amino-acid substitution, averaged” value was 0.00226.
For “AQMQGPYNFIQDSM(averaged) N8G (AQMQGPYGFIQDSM)”, the “DMS position-specific score (PSSM value) per amino-acid substitution, averaged” value was 0.001288.
For “AQMQGPYNFIQDSM(averaged) I10E (AQMQGPYNFEQDSM)”, the “DMS position-specific score (PSSM value) per amino-acid substitution, averaged” value was 0.0004486.
In the case of “AQMQGPYNFIQDSM(averaged) I10L (AQMQGPYNFLQDSM)”, the “DMS position-specific score (PSSM value) per amino-acid substitution, averaged” value was 0.1472.
“AQMQGPYNFIQDSM(averaged) N8M (AQMQGPYMFIQDSM)” was tested, and the “DMS position-specific score (PSSM value) per amino-acid substitution, averaged” value was 0.01948.
For “AQMQGPYNFIQDSM(averaged) N8P (AQMQGPYPFIQDSM)”, the “DMS position-specific score (PSSM value) per amino-acid substitution, averaged” value was 0.002565.
For “AQMQGPYNFIQDSM(averaged) Y7N (AQMQGPNNFIQDSM)”, the “DMS position-specific score (PSSM value) per amino-acid substitution, averaged” value was 0.
In the case of AQMQGPYNFIQDSM(averaged) A1A, the “DMS position-specific score (PSSM value) per amino-acid substitution, averaged” value was 0.1937.
In the case of “AQMQGPYNFIQDSM(averaged) I10G (AQMQGPYNFGQDSM)”, the “DMS position-specific score (PSSM value) per amino-acid substitution, averaged” value was 0.004165.
“AQMQGPYNFIQDSM(averaged) Q4L (AQMLGPYNFIQDSM)” was tested, and the “DMS position-specific score (PSSM value) per amino-acid substitution, averaged” value was 0.003961.
For “AQMQGPYNFIQDSM(averaged) N8S (AQMQGPYSFIQDSM)”, the “DMS position-specific score (PSSM value) per amino-acid substitution, averaged” value was 0.04423.
In the case of “AQMQGPYNFIQDSM(averaged) F9A (AQMQGPYNAIQDSM)”, the “DMS position-specific score (PSSM value) per amino-acid substitution, averaged” value was 0.
With AQMQGPYNFIQDSM(averaged) Q2Q the “DMS position-specific score (PSSM value) per amino-acid substitution, averaged” value was 0.0522.
For “AQMQGPYNFIQDSM(averaged) A1R (RQMQGPYNFIQDSM)”, the “DMS position-specific score (PSSM value) per amino-acid substitution, averaged” value was 0.004419.
For “AQMQGPYNFIQDSM(averaged) S13H (AQMQGPYNFIQDHM)”, the “DMS position-specific score (PSSM value) per amino-acid substitution, averaged” value was 0.
In the case of “AQMQGPYNFIQDSM(averaged) F9E (AQMQGPYNEIQDSM)”, the “DMS position-specific score (PSSM value) per amino-acid substitution, averaged” value was 0.
For “AQMQGPYNFIQDSM(averaged) F9T (AQMQGPYNTIQDSM)”, the “DMS position-specific score (PSSM value) per amino-acid substitution, averaged” value was 0.
With “AQMQGPYNFIQDSM(averaged) N8E (AQMQGPYEFIQDSM)” the “DMS position-specific score (PSSM value) per amino-acid substitution, averaged” value was 0.01047.
With “AQMQGPYNFIQDSM(averaged) I10K (AQMQGPYNFKQDSM)” the “DMS position-specific score (PSSM value) per amino-acid substitution, averaged” value was 0.0003536.
For “AQMQGPYNFIQDSM(averaged) Q4Y (AQMYGPYNFIQDSM)”, the “DMS position-specific score (PSSM value) per amino-acid substitution, averaged” value was 0.002959.
For AQMQGPYNFIQDSM(averaged) N8N, the “DMS position-specific score (PSSM value) per amino-acid substitution, averaged” value was 0.08785.
In the case of “AQMQGPYNFIQDSM(averaged) Q11I (AQMQGPYNFIIDSM)”, the “DMS position-specific score (PSSM value) per amino-acid substitution, averaged” value was 0.
In the case of “AQMQGPYNFIQDSM(averaged) Y7A (AQMQGPANFIQDSM)”, the “DMS position-specific score (PSSM value) per amino-acid substitution, averaged” value was 0.
For “AQMQGPYNFIQDSM(averaged) Y7F (AQMQGPFNFIQDSM)”, the “DMS position-specific score (PSSM value) per amino-acid substitution, averaged” value was 0.03551.
“AQMQGPYNFIQDSM(averaged) Y7P (AQMQGPPNFIQDSM)” was tested, and the “DMS position-specific score (PSSM value) per amino-acid substitution, averaged” value was 0.002813.
“AQMQGPYNFIQDSM(averaged) G5W (AQMQWPYNFIQDSM)” was tested, and the “DMS position-specific score (PSSM value) per amino-acid substitution, averaged” value was 0.033.
For “AQMQGPYNFIQDSM(averaged) I10S (AQMQGPYNFSQDSM)”, the “DMS position-specific score (PSSM value) per amino-acid substitution, averaged” value was 0.0008082.
In the case of “AQMQGPYNFIQDSM(averaged) D12L (AQMQGPYNFIQLSM)”, the “DMS position-specific score (PSSM value) per amino-acid substitution, averaged” value was 0.008174.
With “AQMQGPYNFIQDSM(averaged) Q2H (AHMQGPYNFIQDSM)” the “DMS position-specific score (PSSM value) per amino-acid substitution, averaged” value was 0.02779.
With AQMQGPYNFIQDSM(averaged) M14M the “DMS position-specific score (PSSM value) per amino-acid substitution, averaged” value was 0.2883.
With “AQMQGPYNFIQDSM(averaged) S13K (AQMQGPYNFIQDKM)” the “DMS position-specific score (PSSM value) per amino-acid substitution, averaged” value was 0.
For “AQMQGPYNFIQDSM(averaged) F9W (AQMQGPYNWIQDSM)”, the “DMS position-specific score (PSSM value) per amino-acid substitution, averaged” value was 0.
With “AQMQGPYNFIQDSM(averaged) M3E (AQEQGPYNFIQDSM)” the “DMS position-specific score (PSSM value) per amino-acid substitution, averaged” value was 0.03003.
With “AQMQGPYNFIQDSM(averaged) N8H (AQMQGPYHFIQDSM)” the “DMS position-specific score (PSSM value) per amino-acid substitution, averaged” value was 0.02395.
“AQMQGPYNFIQDSM(averaged) S13L (AQMQGPYNFIQDLM)” was tested, and the “DMS position-specific score (PSSM value) per amino-acid substitution, averaged” value was 0.0002731.
In the case of “AQMQGPYNFIQDSM(averaged) F9R (AQMQGPYNRIQDSM)”, the “DMS position-specific score (PSSM value) per amino-acid substitution, averaged” value was 0.
For “AQMQGPYNFIQDSM(averaged) I10D (AQMQGPYNFDQDSM)”, the “DMS position-specific score (PSSM value) per amino-acid substitution, averaged” value was 0.
“AQMQGPYNFIQDSM(averaged) G5K (AQMQKPYNFIQDSM)” was tested, and the “DMS position-specific score (PSSM value) per amino-acid substitution, averaged” value was 0.001793.
“AQMQGPYNFIQDSM(averaged) N8F (AQMQGPYFFIQDSM)” was tested, and the “DMS position-specific score (PSSM value) per amino-acid substitution, averaged” value was 0.00737.
“AQMQGPYNFIQDSM(averaged) S13V (AQMQGPYNFIQDVM)” was tested, and the “DMS position-specific score (PSSM value) per amino-acid substitution, averaged” value was 0.1094.
In the case of “AQMQGPYNFIQDSM(averaged) M3V (AQVQGPYNFIQDSM)”, the “DMS position-specific score (PSSM value) per amino-acid substitution, averaged” value was 0.3519.
“AQMQGPYNFIQDSM(averaged) S13I (AQMQGPYNFIQDIM)” was tested, and the “DMS position-specific score (PSSM value) per amino-acid substitution, averaged” value was 0.01393.
“AQMQGPYNFIQDSM(averaged) Q2D (ADMQGPYNFIQDSM)” was tested, and the “DMS position-specific score (PSSM value) per amino-acid substitution, averaged” value was 0.02749.
With “AQMQGPYNFIQDSM(averaged) Q2M (AMMQGPYNFIQDSM)” the “DMS position-specific score (PSSM value) per amino-acid substitution, averaged” value was 0.123.
With “AQMQGPYNFIQDSM(averaged) F9S (AQMQGPYNSIQDSM)” the “DMS position-specific score (PSSM value) per amino-acid substitution, averaged” value was 0.
For “AQMQGPYNFIQDSM(averaged) G5A (AQMQAPYNFIQDSM)”, the “DMS position-specific score (PSSM value) per amino-acid substitution, averaged” value was 0.003112.
With “AQMQGPYNFIQDSM(averaged) Y7W (AQMQGPWNFIQDSM)” the “DMS position-specific score (PSSM value) per amino-acid substitution, averaged” value was 0.03599.
With “AQMQGPYNFIQDSM(averaged) Q2L (ALMQGPYNFIQDSM)” the “DMS position-specific score (PSSM value) per amino-acid substitution, averaged” value was 0.006039.
“AQMQGPYNFIQDSM(averaged) A1G (GQMQGPYNFIQDSM)” was tested, and the “DMS position-specific score (PSSM value) per amino-acid substitution, averaged” value was 0.01098.
For “AQMQGPYNFIQDSM(averaged) Q11D (AQMQGPYNFIDDSM)”, the “DMS position-specific score (PSSM value) per amino-acid substitution, averaged” value was 0.
For “AQMQGPYNFIQDSM(averaged) Y7M (AQMQGPMNFIQDSM)”, the “DMS position-specific score (PSSM value) per amino-acid substitution, averaged” value was 0.001832.
With “AQMQGPYNFIQDSM(averaged) Q11L (AQMQGPYNFILDSM)” the “DMS position-specific score (PSSM value) per amino-acid substitution, averaged” value was 0.00722.
In the case of “AQMQGPYNFIQDSM(averaged) I10W (AQMQGPYNFWQDSM)”, the “DMS position-specific score (PSSM value) per amino-acid substitution, averaged” value was 0.1749.
In the case of “AQMQGPYNFIQDSM(averaged) Q2I (AIMQGPYNFIQDSM)”, the “DMS position-specific score (PSSM value) per amino-acid substitution, averaged” value was 0.05266.
For “AQMQGPYNFIQDSM(averaged) S13G (AQMQGPYNFIQDGM)”, the “DMS position-specific score (PSSM value) per amino-acid substitution, averaged” value was 0.0006715.
With “AQMQGPYNFIQDSM(averaged) Q2A (AAMQGPYNFIQDSM)” the “DMS position-specific score (PSSM value) per amino-acid substitution, averaged” value was 0.04422.
With “AQMQGPYNFIQDSM(averaged) G5E (AQMQEPYNFIQDSM)” the “DMS position-specific score (PSSM value) per amino-acid substitution, averaged” value was 0.000605.
In the case of “AQMQGPYNFIQDSM(averaged) D12R (AQMQGPYNFIQRSM)”, the “DMS position-specific score (PSSM value) per amino-acid substitution, averaged” value was 0.003499.
In the case of “AQMQGPYNFIQDSM(averaged) I10T (AQMQGPYNFTQDSM)”, the “DMS position-specific score (PSSM value) per amino-acid substitution, averaged” value was 0.01974.
For “AQMQGPYNFIQDSM(averaged) Q11A (AQMQGPYNFIADSM)”, the “DMS position-specific score (PSSM value) per amino-acid substitution, averaged” value was 0.001301.
For “AQMQGPYNFIQDSM(averaged) G5P (AQMQPPYNFIQDSM)”, the “DMS position-specific score (PSSM value) per amino-acid substitution, averaged” value was 0.02397.
In the case of “AQMQGPYNFIQDSM(averaged) Y7G (AQMQGPGNFIQDSM)”, the “DMS position-specific score (PSSM value) per amino-acid substitution, averaged” value was 0.05778.
For “AQMQGPYNFIQDSM(averaged) M3A (AQAQGPYNFIQDSM)”, the “DMS position-specific score (PSSM value) per amino-acid substitution, averaged” value was 0.007318.
With “AQMQGPYNFIQDSM(averaged) S13W (AQMQGPYNFIQDWM)” the “DMS position-specific score (PSSM value) per amino-acid substitution, averaged” value was 0.01323.
In the case of “AQMQGPYNFIQDSM(averaged) N8L (AQMQGPYLFIQDSM)”, the “DMS position-specific score (PSSM value) per amino-acid substitution, averaged” value was 0.06185.
